Earlier results on 16 compounds are cited in patent EP2610673B1, “Method for manufacturing lithographic printing plates” (FUJIFILM Corporation, priority 2011, dated 2013).

Take `CCC(C)CO` (stereo not shown) [2-methyl-1-butanol]: the “solubility in 20°C water” value is on record as 3.0 g/100 mL.

On to `CC(C)CCO` [3-methyl-1-butanol], for which the “solubility in 20°C water” value is 2.7 g/100 mL.

Regarding `CC(C)C(C)O` (stereo not shown) [3-methyl-2-butanol], the “solubility in 20°C water” value was 5.6 g/100 mL. For the compound `CC(C)CC(C)O` (stereo not shown) [4-methyl-2-pentanol], the “solubility in 20°C water” value is listed as 2.0 g/100 mL. In the case of `CCCCCO` [Example 1-pentanol, 1-pentanol], the “solubility in 20°C water” value is 2.7 g/100 mL.

For the compound `CCCC(C)O` (stereo not shown) [Example 2-pentanol, 2-pentanol], the “solubility in 20°C water” value was 4.5 g/100 mL.

In the case of `CCCC(C)=O` [Example 2-pentanone, 2-pentanone], the “solubility in 20°C water” value was 4.0 g/100 mL. As to `CCC(O)CC` [Example 3-pentanol, 3-pentanol], the “solubility in 20°C water” value is on record as 5.2 g/100 mL.

On to `OCc1ccccc1` [benzyl alcohol], for which the “solubility in 20°C water” value was 4.0 g/100 mL.

In the case of `CCC(=O)CC` [diethyl ketone], the “solubility in 20°C water” value is 1.7 g/100 mL. With `CCCCOCCOCCOC(C)=O` [diethylene glycol monobutyl ether acetate], the “solubility in 20°C water” value is given as 6.5 g/100 mL. `OCCOc1ccccc1` [ethylene glycol monophenyl ether]: the “solubility in 20°C water” value is recorded as 2.7 g/100 mL. With `CC(=O)OC(C)C` [isopropyl acetate], the “solubility in 20°C water” value was 4.3 g/100 mL.

Take `CC(C)(C)CO` [neopentyl alcohol]: the “solubility in 20°C water” value is given as 3.5 g/100 mL.

Regarding `CCCOC(C)=O` [propyl acetate], the “solubility in 20°C water” value is given as 1.6 g/100 mL. As for `CCCCOCC(C)O` (stereo not shown) [propylene glycol mono-n-butyl ether], the “solubility in 20°C water” value is given as 4.4 g/100 mL.
